This is an account of results in patent US20170258871A1, “COMBINED USE OF A TRKA INHIBITOR AND AN EPHA2 INHIBITOR FOR USING IN THE TREATMENT OF SOLID CANCERS, AND METHOD FOR THE PROGNOSIS OF SURVIVAL OF A PATIENT WHO HAS A SOLID CANCER” (UNIVERSITE DES SCIENCES ET TECHNOLOGIES DE LILLE, priority 2014, published 2017).

Each structure is given as a SMILES string.

Test [1] relates to MDA-MB-231 HA-TrkA tumours. Put plainly: Xenograft of MDA-MB-231 HA-TrkA in SCID mice, tumour volume (Experiment 1). The settings on record: 3 injections every 3 days from day 14; CEP-701 10 mg/kg intraperitoneal, siEphA2 7.5 microg/mouse close to the tumour. The class given is in vivo. As for the experimental part:
FIG. 9: A study of the inhibition of TrkA and EphA2 on tumour development in vivo. The tumours were developed without any intervention for 14 days and then subjected to 3 injections (every 3 days, black arrows) of solvent (control), CEP-701 (10 mg/kg), siEphA2 (7.5 microg/mouse) or CEP-701 (10 mg/kg) and siEphA2 (7.5 microg/mouse). The experiments were stopped 31 days after the first injection of the treatment for ethical considerations after the death of the control mice. A) The tumour volumes were evaluated by measuring the length (;) and the width (w) and then calculating the volume using the formula π/6×l×W×(l+w)/2; the Mann and Whitney test was carried out between the control group and CEP-701 (a), between the control groups and siEphA2 (b), between the control groups and CEP-701+siEphA2 (c), and between the groups siEphA2 and CEP-701+siEphA2 (d)*, P<0.05; **, P<0.01; ns: not significant. B) Study of the inhibition of the expression of receptors by siRNA on the overall survival of SCID mice. […] The tumour volumes were evaluated by measuring the length (l) and width (w) and then calculating the volume using the formula π/6×l×W×(l+w)/2. […] Significance was measured using the log-rank test (P=0.0022). […]
Experiment 1: the mice used were six-week old SCID females. […] The tumour volume was measured according to the following formula: π/6×length×width×(width+length)/2. […]

A further test concerns Src. Put plainly: Western blot of Src phosphorylation in MDA-MB-231 cells. The class given is cell-based. How it is done: (§1) FIG. 8: A study of the role of TrkA and EphA2 in the activation of proteins Akt and Src. Cells MDA-MB-231 were respectively treated with a TrkA inhibitor (K252a), an anti-EphA2 siRNA (siEphA2), an inhibitor of PI3-K (LY294002) and an inhibitor of Src (SKI-1).
(§2) A and D. Cells MDA-MB-231 HA-TrkA were treated with proNGF N.C. […] The phosphorylation of Akt and Src was determined by using phospho-specific antibodies. The equal charge was verified using Akt and Src antibodies.
(§3) C and F. The phosphorylation of Akt and Src was determined in the total lysates coming from cells MDA-MB-231 transfected with siEphA2 and treated for 30 minutes with proNGF N.C. (C) or NGF (F).
(§4) After treatment, the cells were lysed (lysis buffer: 40 mM HEPES pH 7.5; 1 mM EDTA pH 8.0; 120 mM NaCl; 10 mM NaPPi; 50 mM NaF; 1.5 mM Na3VO4; 1% Triton X 100; 0.1% SDS; 1 mM PMSF; 10% glycerol and 1/100 th of protease inhibitor cocktail (Sigma) (20 min; 4° C.)). The lysates were recovered and clarified by centrifugation (12,000 g; 10 min; 4° C.). The supernatant was then stored at −80° C. until use. The protein extracts were diluted to 2 μg·μL−1 in a Laemmli 1× buffer (7 min; 100° C.) then deposited and separated on SDS-PAGE (concentration gel 3.6% acrylamide and separation gel 7.5% to 10% acrylamide (thickness 1 mm); 180 V; 10 min then 200 V constant; until output of the migration front). The proteins separated by SDS-PAGE were transferred according to the semi-dry transfer method (buffer: 48 mM Tris base, 39 mM glycine, 1.64 mM SDS, 20% methanol (v/v); 14 V; 15 min per gel) or liquid (buffer: 25 mM Tris base and 192 mM glycine; 15% methanol (v/v); 100 V; 30 min) on nitrocellulose membranes (0.45 μm; Whatman; Germany) or PVDF (0.45 μm; Immobilon P; Millipore; France). The PVDF membrane was “activated” beforehand (methanol; 10 min; 20° C.). The membranes were then saturated (TBS-T; 5% BSA; 1 h; 20° C.) then incubated (16 h; 4° C.) with the chosen primary antibody. […] The membranes were placed in an image analyser (LAS 4000; Fuji) connected to a computer which allowed image generation (software Image Reader LAS 4000).
(§5) The antibody against EphA2 was sc-924 (Santa Cruz), the antibody against sortilin was BD Bioscience 612101, the antibody against TrkA was sc 14024 (Santa Cruz), the antibody against HA was MMS-101R (Covance), the antibody against Akt was Cell Signaling 4691, the antibody against phospho-Akt (Ser 473) was Cell Signaling 9271, the antibody against Src was Cell Signaling 2109 (WB), the antibody against PhosphoSrc (Tyr416) was Cell Signaling 2105 and the antibody against actin was Sigma A2066.
(§6) Proteins Akt and Src were both involved in the pro-invasive effect of proNGF. In order to identify the role of TrkA and EphA2 in the activation of proteins Akt and Src, cells MDA-MB-231 were treated respectively with a TrkA inhibitor (K252a), an anti-EphA2 siRNA (siEphA2) the sequence of which is presented in table 1, a PI3-K inhibitor (LY294002) (the activation of Akt in effect underlies that of PI3-K) and an inhibitor of Src (SKI-1).
(In western blotting, separated proteins are transferred to a membrane and probed.)

In test [2] the test system is tumours xenografted with cells MDA-MB-231 overexpressing TrkA. The conditions noted are these: previously demonstrated, ref (34); cited from earlier work.
The test system of another test is Akt. The test can be described thus: Western blot of Akt phosphorylation in MDA-MB-231 cells. The class given is cell-based. The settings on record: for effect on Akt activation induced by proNGF: proNGF N.C. 30 min, 10 nM K252a, 15 μM LY294002, 50 nM SKI-1 or siEphA2. As for the experimental part:
as §1, §2, §3, §4, §5, §6

Setting [3] is: NGF 30 min, 10 nM K252a or siEphA2.

On to `C[C@]12O[C@H](C[C@]1(O)CO)n1c3ccccc3c3c4c(c5c6ccccc6n2c5c31)CNC4=O` [CEP-701, reference compound], for which the “tumour volume / growth of xenografted tumours vs control” value in test [1] is reported as “slightly, but not significantly, reduced”.

As for `COC(=O)[C@@]1(O)C[C@H]2O[C@]1(C)n1c3ccccc3c3c4c(c5c6ccccc6n2c5c31)C(=O)NC4` [K252a, reference compound], in the test with Src (setting [3]), the “effect on Src phosphorylation induced by NGF” value is “inhibited this activation”. The “growth of xenografted tumours” value in test [2] is on record as “reduces the growth of tumours”. Also, the “effect on Akt phosphorylation induced by NGF” value in the test with Akt (setting [3]) is “inhibited this activation”. The “effect on Akt activation induced by proNGF” value in the test on Akt is recorded as “abolished the activation of Akt”.

As to `COc1cc2ncnc(Nc3ccc(Oc4ccccc4)cc3)c2cc1OC` [SKI-1, reference compound], the “effect on Src activation induced by proNGF” value with Src (proNGF N.C. 30 min, 10 nM K252a, 15 μM LY294002, 50 nM SKI-1 or siEphA2) is “inhibition of Src”. In addition, the “effect on Akt activation induced by proNGF” value with Akt is given as “does not affect the phosphorylation of Akt”.
